Entries after “also recorded” stand apart in the source; their conditions may differ. Like-named read-outs stand apart in the source and are kept apart here.

The target of experiment [1] is T1, FGFR-1 (Mus musculus, UniProt P16092). The experiment in a line: Binding of 125I-bFGF to CHO cells expressing FGFR-1.
Description: First we utilized a cell-free system, measuring the binding of radiolabeled bFGF to a dimeric soluble FGFR-1 fused to alkaline phosphatase. The soluble FRAP was immobilized using an anti-alkaline phosphatase antibody prebound to agarose-protein A beads (see Methods, section (iii)). As a: second experimental model, we used CHO cells deficient in heparan sulfate and genetically engineered to express FGFR-1 (Methods, section (iv)).
The subject of experiment [2] is FGFR-3 expressing CHO cells. Description: FGF-9 induced mitogenic activity (DNA synthesis) of FGFR-3 expressing CHO cells. The format is cell-based. Conditions: FIG. 13. As for the experimental part:
CHO cells genetically engineered to express FGFR-3 were grown in the presence of increasing concentrations of porphyrins P1 and P16 in order to determine the ability of the porphyrins to inhibit FGF-9 induced DNA synthesis.
CHO cells genetically engineered to express FGFR-3 were used in order to determine the ability of the porphyrins P1 and P16 to inhibit biological activity of FGFR3 as measured by the level of DNA synthesis induced by FGF-9.

Experiment [3] has as its system Lewis lung carcinoma (LLC) lung metastasis. Description: Lewis lung carcinoma lung metastasis model. It counts as in vivo, C57 black mice. Also on record: Inhibitory activity in vivo, LLC tumor model (as % of total inhibition): reference not given here. Conditions: for Inhibitory activity in vivo, LLC tumor model (as % of total inhibition): 25 μg/gram, LLC murine tumor model, lung metastasis. The method, then: (§1) (vii) Lewis lung carcinoma tumor assay. Murine Lewis lung carcinoma (LLC) D122 cells (1×10^6 cells/[…] PBS) were injected into the foot pads of 10-week old C57 black mice (O'Reilly et al, 1994). Twenty five μg/g of body mass of porphyrin or corrole compound dissolved in PBS were injected IP twice a week to the treated group, and tumor size was measured periodically in order to follow primary tumor formation. In order to evaluate inhibition of lung metastasis by porphyrin or corrole compound, the primary tumors were allowed to develop over a period of six weeks to a volume of approximately 8 mm^3; after which the tumors were removed and metastases were allowed to develop for four weeks. During this time the treated group received 25 μg/g of body mass of porphyrin or corrole compound IP twice a week. Subsequently the mice were sacrificed, dissected and the lungs removed and photographed. The extent of lung metastasis was measured by weighing the lungs.
After establishing the capacity of P1 to inhibit primary tumor growth, the capacity of P1 to inhibit lung metastasis formation was measured as described in Methods, section (vi). Mice were injected with LLC cells (200,000 cells per mouse) into the foot pad and primary tumors were allowed to develop over a period of 3 to 4 weeks to a volume of approximately 8 mm^3. Subsequently, primary tumors were removed through amputation and lung metasases were allowed to develop for four weeks before the mice were sacrificed. The extent of lung metastasis at this point was examined by gross morphological examination and by determining the gain in lung weight. […] In order to quantitate the results from these experiments, the lungs from all mice were weighed and evaluated for the extent of metastatic growth.

Experiment [4] concerns the target T2, FGFR-1 alkaline phosphatase fusion protein (FRAP) (Mus musculus, UniProt P16092).
T2 construct: soluble FGFR-1 ectodomain alkaline phosphatase fusion protein (FRAP); made in house; host or cells: NIH 3T3 cells (conditioned medium)
T2 sequence (P16092 22-376 limits assumed): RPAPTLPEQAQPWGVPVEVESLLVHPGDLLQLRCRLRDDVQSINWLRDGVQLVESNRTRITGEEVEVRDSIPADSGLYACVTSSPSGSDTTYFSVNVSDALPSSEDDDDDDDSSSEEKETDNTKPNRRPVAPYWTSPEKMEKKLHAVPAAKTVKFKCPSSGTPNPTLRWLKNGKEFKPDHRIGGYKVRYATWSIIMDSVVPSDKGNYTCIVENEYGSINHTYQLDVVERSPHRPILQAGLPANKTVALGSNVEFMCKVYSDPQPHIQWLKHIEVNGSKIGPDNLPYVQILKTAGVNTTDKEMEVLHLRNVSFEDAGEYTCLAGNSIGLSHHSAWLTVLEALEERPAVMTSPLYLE
Description: Binding of soluble FGFR-1 alkaline phosphatase fusion protein (FRAP) to bFGF immobilized on heparin (Screen AP assay). As for the experimental part:
(ii) Binding of soluble FGFR-1 alkaline phosphatase fusion protein (FRAP) to immobilized bFGF. […] The end-point of the assay measured enzymatically the formation of FGF-receptor complexes quantitated by the specifically associated alkaline phosphatase (AP) catalyzed chromogenic product.
Subsequently, 200 μl of FRAP condition medium and porphyrin/corrole compound were added and incubated together for 2 h.
In order to identify inhibitors of FGF-FGFR interactions, an assay for testing FGFR-ligand binding was developed. The system is composed of bFGF bound to a heparin matrix to which soluble FGFR-1 ectodomain alkaline phosphatase fusion protein (FRAP) and the screened compounds are added (see Methods, section (ii)).

The next experiment deals with T3, soluble FGFR-1 (FRAP) (Mus musculus, UniProt P16092).
T3 sequence (P16092 22-376 limits assumed): T2 sequence (P16092 22-376 limits assumed)
The experiment in a line: Binding of 125I-bFGF to immobilized soluble FGFR-1 (FRAP), cell-free.

Experiment [5] concerns Lewis lung carcinoma (LLC) D122 cells. The experiment in a line: Lewis lung carcinoma primary tumor growth (foot pad). It counts as in vivo, C57 black mice. Conditions: 25 μg/g of body mass IP twice a week. As for the experimental part: as §1
Inhibition of primary tumor growth was tested using the well-established LLC murine tumor growth and metastasis model (Methods, section (vii)). LLC D122 cells (200,000 cells per mouse) were injected into the foot pads of 10-week old C57 black mice. […] The inhibition of the foot pad primary carcinoma tumor growth was statistically established and reproducible in five experiments.

Experiment [6] has as its target T1, FGFR-1. Description: Covalent cross-linking of 125I-bFGF to CHO cells transfected with FGFR-1. It counts as binding. Also on record: expressed in transfected cells; host or cells: CHO cells deficient in heparan sulfate. Conditions: FIG. 2. The method, then:
Binding of ^125I-bFGF to confluent monolayers of PGFR-1 expressing CHO cells or ^125I-FGF9 to FGFR-3 expressing CHO cells, was performed as described in Methods, section (iv), in the presence or absence of P1 (Inhibitor). After 90 min, disuccinylimidyl suberate [DSS]
(iv) Binding of ^125I-bFGF and ^125I-FGF9 to cells. Confluent cultures of CHO cells expressing FGFR-1(Yayon et al, 1991) or FGFR-3 (Hecht et al, 1995) in 24-well plates (Falcon) were precooled and washed twice with cold DMEM supplemented with 20 mM Hepes (pH 7.5) and 0.1% bovine serum albumin (DMEM/BSA). They were then incubated for 1.5 h at 4° C. with ^125I-bFGF (2 ng/ml) and increasing concentrations of porphyrin/corrole compound. The binding medium was discarded and the cells were washed once with ice-cold DMEM/BSA and twice with cold PBS (pH 7.5) containing 1.6M NaCl. […] Non-specific binding was determined in the presence of a 100-fold excess of unlabeled bFGF.
In order to unequivocally determine the specificity of the binding inhibition, chemical cross-linking of ^125I-bFGF and ^125I-FGF9 to CHO cells transfected with FGFR-1 and FGFR-3, respectively, was carried out as described in Methods, section (iv), in the absence or presence of increasing concentrations of P1.

T1 sequence (P16092 22-822): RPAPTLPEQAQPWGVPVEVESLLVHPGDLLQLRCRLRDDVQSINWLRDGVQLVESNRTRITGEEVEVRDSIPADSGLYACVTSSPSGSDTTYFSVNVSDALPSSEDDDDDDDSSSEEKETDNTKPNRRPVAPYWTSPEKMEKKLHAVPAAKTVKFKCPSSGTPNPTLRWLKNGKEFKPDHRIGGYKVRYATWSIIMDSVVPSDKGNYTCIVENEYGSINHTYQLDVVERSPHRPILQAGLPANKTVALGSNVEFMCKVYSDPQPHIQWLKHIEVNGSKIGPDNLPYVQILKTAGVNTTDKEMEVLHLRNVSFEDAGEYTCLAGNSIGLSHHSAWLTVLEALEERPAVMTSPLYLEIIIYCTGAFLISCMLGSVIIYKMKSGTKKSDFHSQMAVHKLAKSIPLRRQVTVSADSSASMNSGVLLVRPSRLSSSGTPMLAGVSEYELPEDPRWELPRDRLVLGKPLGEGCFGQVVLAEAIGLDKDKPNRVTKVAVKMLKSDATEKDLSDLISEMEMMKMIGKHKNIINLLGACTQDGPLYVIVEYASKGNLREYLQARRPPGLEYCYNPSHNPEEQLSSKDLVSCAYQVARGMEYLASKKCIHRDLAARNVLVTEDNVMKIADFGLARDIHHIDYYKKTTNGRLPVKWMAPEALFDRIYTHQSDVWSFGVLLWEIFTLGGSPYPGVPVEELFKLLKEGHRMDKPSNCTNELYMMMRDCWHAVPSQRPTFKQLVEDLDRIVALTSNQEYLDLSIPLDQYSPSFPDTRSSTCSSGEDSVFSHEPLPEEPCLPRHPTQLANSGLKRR
Description for soluble FGFR-1 (FRAP): First we utilized a cell-free system, measuring the binding of radiolabeled bFGF to a dimeric soluble FGFR-1 fused to alkaline phosphatase. […] As a: second experimental model, we used CHO cells deficient in heparan sulfate and genetically engineered to express FGFR-1 (Methods, section (iv)).

Regarding `C[n+]1ccc(-c2c3nc(c(-c4cc[n+](C)cc4)c4ccc([nH]4)c(-c4cc[n+](C)cc4)c4nc(c(-c5cc[n+](C)cc5)c5ccc2[nH]5)C=C4)C=C3)cc1` [Compound P1, 5,10,15,20-Tetrakis(N-methyl-4-pyridylium)-21H,23H-porphine tetra-p-tosylate], the IC50 (commonly the concentration at which inhibition is half-maximal) at FGFR-1 [1] (Cellular receptor binding (IC50), binding of FGF to FGFR, Methods section (iv)) is 1500 nM; at FGFR-1 [1] (IC50, bFGF binding in the cellular receptor system, FIG. 1C), roughly 2500 nM; in experiment [4] (FIG. 1A, read-out: IC50, inhibition of FRAP binding to bFGF immobilized on heparin matrix (converted)), 133 nM; in experiment [4] (IC50, inhibition of binding of soluble FGFR-1 to bFGF immobilized on heparin, text of detailed description) it was 90000 nM; in experiment [4] (binding of FGF to FGFR, Methods section (ii), read-out: Screen AP assay (IC50)) it was 75 nM; at soluble FGFR-1 (FRAP) (IC50, bFGF-FGFR1 binding in the soluble receptor (FRAP) assay, FIG. 1B), roughly 1000 nM. On soluble FGFR-1 (FRAP) (Soluble receptor binding (IC50), binding of FGF to FGFR, Methods section (iii)), the 50% inhibitory concentration (IC50) is 750 nM. Moreover, in experiment [2], the “Effect on cell proliferation induced by FGF-9” value is on record as “strong inhibitory effect”. In experiment [3] (25 μg/g of body mass IP), the “Inhibition of lung metastasis in LLC model, in words” value is given as “no metastatic phenotype; also recorded: nearly total inhibition of the metastatic phenotype”. The “Inhibitory activity in vivo, LLC tumor model (as % of total inhibition)” value in experiment [3] stood at 100%. Besides, in experiment [3] (P1 25 μg/g of body mass, FIG. 7), the Lung weight entry is given as “around 200 mg”. Moreover, the “Inhibition of primary tumor growth in LLC model, in words” value in experiment [5] is “marked inhibition in primary tumor growth”. Moreover, the “Inhibition of bFGF-receptor complex formation (cross-linking), in words” value at FGFR-1 [6] is reported as “inhibition of formation of a typical bFGF-receptor complex”.

In the case of `C[n+]1ccc(-c2c3nc(c(-c4cc[n+](C)cc4)c4ccc([nH]4)c(-c4c(F)c(F)c(F)c(F)c4F)c4nc(c(-c5cc[n+](C)cc5)c5ccc2[nH]5)C=C4)C=C3)cc1.[I-].[I-].[I-]` [Compound P16, 5-Pentafluorophenyl-10,15,20-tris(N-methyl-4-pyridylium)-21H,23H-porphine triiodide], the IC50 turned out to be 20 nM on FGFR-1 [1] (read-out: Cellular receptor binding (IC50), binding of FGF to FGFR, Methods section (iv)) and 10 nM on soluble FGFR-1 (FRAP) (read-out: Soluble receptor binding (IC50), binding of FGF to FGFR, Methods section (iii)). For the same compound, the “Effect on cell proliferation induced by FGF-9” value in experiment [2] is reported as “strong inhibitory effect”. Also, the “Inhibitory activity in vivo, LLC tumor model (as % of total inhibition)” value in experiment [3] is 60%.

For the origin of these results see patent US6730666B1, “Pharmaceutical compositions comprising porphyrins and some novel porphyrin derivatives” (Yeda Research and Development Co. Ltd., priority 1998, dated 2004).
